Measurements reported in article PMC7675582, “Time-Dependent Fluorescence Spectroscopy to Quantify Complex Binding Interactions” (ACS Omega, 2020).

Molecular target: T1, galectin-3 (Homo sapiens, UniProt P17931)
T1 construct: gene LGALS3; recombinant human galectin-3, GST-purified with the GST tag removed
Experiment: intrinsic tryptophan fluorescence lifetime titration (direct waveform recording, excitation at […] nm), fit with n = […]
Type: binding

T1 sequence (P17931 2-250): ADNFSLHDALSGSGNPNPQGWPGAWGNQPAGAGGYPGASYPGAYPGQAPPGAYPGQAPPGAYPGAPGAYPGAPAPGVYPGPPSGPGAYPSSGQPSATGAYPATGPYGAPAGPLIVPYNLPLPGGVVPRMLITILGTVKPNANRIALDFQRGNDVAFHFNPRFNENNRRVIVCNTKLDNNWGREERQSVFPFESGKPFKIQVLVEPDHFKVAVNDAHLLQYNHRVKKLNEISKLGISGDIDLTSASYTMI

## COC1O[C@H](CO)[C@@H](O[C@@H]2O[C@H](CO)[C@H](O)[C@H](O)[C@H]2O)[C@H](O)[C@H]1O (stereo partly shown) [methyllactose]
  Kd: 54 ± 10 µM
